From paper PMC5834442, “Identifying inhibitors of the Leishmania inositol phosphorylceramide synthase with antiprotozoal activity using a yeast-based assay and ultra-high throughput screening platform” (Scientific Reports, 2018) come the findings set out here.

In the experiment the test system is L. donovani (MHOM/SD/62/1S-CL2D, LdBOB) axenic amastigotes. Briefly: Leishmania donovani axenic amastigote dose response assay (resazurin). The class given is cell-based. The note with it: -logIC50 mol against L. donovani (LdBOB) axenic amastigotes, read-out: pIC50 Axenic (converted).
Take `O=C1CC(c2ccccc2)N(c2ccc(Cl)cc2)N1` (stereo not shown) [0014C 75***]: the IC50 is 26.9 µM.
The same measure for `Cc1cccc(Nc2cccc3c(=O)[nH][nH]c(=O)c23)c1C` [78/118]: above 50 µM; for `CCOc1cc2c(cc1S(=O)(=O)c1ccc(COc3ccc(F)cc3)cc1)CCN(C)CC2` [AL101938-139A1]: 31.6 µM.
`O=C(NC1CCN(S(=O)(=O)c2ccc(O[C@@H]3CCNC3)cc2)CC1)c1ccc(Cl)c(Cl)c1` [AS45234-005A4B2C1D4]: the IC50 is above 50 µM.
Regarding `Cc1ncccc1Oc1ncc(Cl)cc1S(=O)(=O)Nc1cc(Cl)ccc1F` [AV207107-102A1], the IC50 is 12.6 µM.
Turning to `COc1cc2c(cc1S(=O)(=O)c1ccc(COc3cccc(F)c3)cc1)CCN(C)CC2` [DC101675-085A1], the IC50 was above 50 µM.
In the case of `O=S(=O)(Nc1ccccc1C(F)(F)F)c1ccc(-c2cccs2)s1` [DJ107456-053A67], the IC50 was 14.8 µM.
In the case of `Cc1cnc(NS(=O)(=O)c2ccc(-c3ccc(F)cc3)s2)c(Br)c1` [DJ107456-057A22], the IC50 is 28.2 µM.
Regarding `O=S(=O)(Nc1c(F)cccc1C(F)(F)F)c1ccc(-c2ccccc2F)s1` [DJ107456-080A211], the IC50 is 26.9 µM.
In the case of `COc1ccc(-c2ccc(S(=O)(=O)Nc3ncc(Cl)cc3Cl)s2)cc1` [DJ107456-088A34], the IC50 is 27.5 µM.
For `O=S(=O)(Nc1ccccc1CN1CCC(F)(F)C1)c1ccc(Cl)c(Cl)c1` [DS105792-004A16B1], the IC50 was 22.4 µM.
The same measure for `O=S(=O)(Nc1cccc(F)c1CNCc1ccco1)c1ccc(Cl)c(Cl)c1` [DS105792-055A6B42]: 19.5 µM; for `O=S(=O)(Nc1cccc(F)c1CNCc1ccco1)c1ccccc1Cl` [DS105792-055A7B42]: 32.4 µM.
As for `CN1CCC(Oc2cccc(C(=O)N3CCC(CNS(=O)(=O)c4cccc(F)c4)CC3)c2)CC1` [DS205504-126A32B5C8], the IC50 was above 50 µM.
Regarding `CN1CC[C@@H](Oc2cc(CNC(=O)c3ccc(Br)cc3)ccc2Cl)C1` [DZ203929-138A2], the IC50 was above 50 µM.
Regarding `Nc1nonc1-c1nc2c(-c3cccc(F)c3)nccc2n1C1CCNCC1` [IS203450-048A1], the IC50 is 40.7 µM.
On to `CC(C(O)(Cn1cncn1)c1ccc(F)cc1F)S(C)(=O)=O` (stereo not shown) [JCH/31/2], for which the IC50 is above 50 µM.
Then `OC(CCC1CCCCC1)(Cn1ccnc1)c1ccc(F)cc1F` (stereo not shown) [JJP/1777/3], with 14.1 µM.
Regarding `OC(Cn1cncn1)(c1ccc(F)cc1F)C1CCCS1` (stereo not shown) [JJP/1818/3], the IC50 is above 50 µM.
On to `Fc1ccc(-c2nc(-c3cccs3)[nH]c2-c2ccncc2)cc1` [JMS-15898-298-1], for which the IC50 is 20.9 µM.
As for `Nc1ccc(Br)cc1-c1nc(N)c2cc(Br)ccc2n1` [N4309-86-B1], the IC50 was above 50 µM.
On to `Cc1cc(Cl)ccc1NC(=O)COc1ccccc1NS(=O)(=O)c1cccs1` [N6862-82-1], for which the IC50 was 20 µM.
Then `Cc1ccccc1NC(=O)COc1ccccc1NS(=O)(=O)c1cccs1` [N6862-82-2], with above 50 µM; and `O=C(NC1=NN(c2ccc(Cl)c(Cl)c2)CC1)c1ncccn1` [N7030-10-104], with above 50 µM; and `Cc1cc(Cl)ccc1NC(=O)CN(c1ccccc1C(=O)O)S(=O)(=O)c1cccs1` [N9272-3-4], with above 50 µM.
For `Cc1c(-c2noc(-c3ccc(OC(C)C)c(Cl)c3)n2)ccc2c1CCNC2` [N11266-30-A1], the IC50 is 22.4 µM.
For `O=C(NC1=NN(c2ccc(Cl)c(Cl)c2)CC1)c1ccncc1` [N11828-23-3], the IC50 was above 50 µM.
On to `O=C1CCc2cc(-c3csc(-c4cccnc4)n3)ccc2N1` [R9196/29/59], for which the IC50 was above 50 µM.
Then `O=S(=O)(Nc1cc(Cl)ccc1O)c1ccc(Cl)c(Cl)c1` [R10040/200/6], with 12 µM.
`CCn1ncc2c(N[C@H]3CCCC[C@H]3C(=O)O)c(C(=O)NCc3ccccc3)cnc21` [R10565/35/4]: the IC50 was above 50 µM.
For `CN1CCN(c2ccc3ncc(-c4cccc(NC(=O)Cc5cccs5)c4)n3n2)CC1` [R11466/151/4], the IC50 was above 50 µM.
Turning to `O[C@@](Cn1cncn1)(c1ccc(F)cc1F)C1CCOCC1` [RB/854/3], the IC50 is above 50 µM.
As to `O=C(NCc1cccs1)c1sccc1NS(=O)(=O)c1ccccc1` [RF44798-098A21], the IC50 was 12.3 µM.
`O=C(NCc1ccccc1)c1sccc1NS(=O)(=O)c1ccccc1` [RF44798-098A22]: the IC50 is 21.4 µM.
The same measure for `O=c1cc(-c2ccccc2O)oc2ccccc12` [SC/32543]: above 50 µM; for `Nc1ccc(S(=O)(=O)Nc2ccccc2Oc2ccc(Cl)cc2Cl)cc1` [SC/79553]: 10.5 µM.
In the case of `c1ccc(N2CCN(c3ncc(-c4cccs4)cn3)CC2)nc1` [SC/89927], the IC50 is above 50 µM.
For the compound `CC1CCc2c(sc(NC(=O)c3cccs3)c2C#N)C1` (stereo not shown) [SC/95708], the IC50 was above 50 µM.
Regarding `O=C(Nc1c(Br)c(C2CC2)nn1-c1ccccc1)C(Cl)(Cl)Cl` [SC/96415], the IC50 was 20.4 µM.
Then `O=S(=O)(Nc1cccc2nsnc12)c1cccs1` [SC/96769], with 24.5 µM; and `CCc1cccc(NC(=O)Nc2cc(F)ccc2F)c1` [SC/109224], with 15.1 µM.
Turning to `COc1ccc(Cl)cc1NC(=O)Nc1cccc(F)c1` [SC/109667], the IC50 was 11.5 µM.
For `O=C(NNC(=O)c1c(O)c2ccccc2[nH]c1=O)c1ccc(Cl)cc1Cl` [SC/110880], the IC50 was above 50 µM.
On to `Cc1ccc(-c2nc3ccccc3[nH]2)cc1NC(=O)c1cc2ccccc2o1` [ST48766-047X8], for which the IC50 is 11.7 µM.
With `O=C(c1cccs1)c1conc1C(=O)c1ccc(Br)cc1` [ST/261533], the IC50 is above 50 µM.
As for `COc1ccc(C(=O)c2nocc2C(=O)c2ccc(Cl)cc2)cc1` [ST/261550], the IC50 is 44.7 µM.
On to `O=C(Nc1nnc(COc2ccc(F)cc2)s1)c1cnccn1` [ST/389620], for which the IC50 is 33.1 µM.
`FC(F)(F)c1ccc(Nc2nc(-c3ccncc3)cs2)cc1` [ST/510927]: the IC50 is 27.5 µM.
In the case of `N#Cc1ccc(Cn2cc(C(=O)c3cccs3)c3ccccc32)cc1` [ST/516872], the IC50 was 14.8 µM.
The same measure for `Cc1oc2cc(O)ccc2c(=O)c1-c1nc2ccccc2s1` [ST/517902]: above 50 µM; for `Nc1ccc(-c2nc3cc(Cl)cc(Cl)c3o2)cc1` [ST/525525]: 49 µM; for `COc1ccc(S(=O)(=O)Nc2ccccc2C(F)(F)F)c(Cl)c1Cl` [ST/534228]: 19.5 µM.
In the case of `CNc1nc(N)c([N+](=O)[O-])c(Nc2cccc(Cl)c2)n1` [ST/537896], the IC50 was 19.5 µM.
`Cc1ccc2cc(C(=O)Nc3ccc(C)c(N)c3)sc2c1` [ST/551412]: the IC50 is 20.4 µM.
Turning to `CCOc1cccc(C(=O)Nc2cc(-c3nc4ccccc4[nH]3)ccc2C)c1` [ST/591387], the IC50 is 15.8 µM.
As for `O=C(c1ccccc1)N1C(=O)C(c2ccccc2)Oc2ccccc21` (stereo not shown) [ST/629481], the IC50 is 24.5 µM.
The same measure for `O=S(=O)(Nc1ccccc1Br)c1ccc(Cl)c(C(F)(F)F)c1` [ST/630987]: 19.1 µM; for `O=C(Nc1ccc(OC(F)(F)F)cc1)c1ccc(Br)s1` [ST/631944]: 13.2 µM; for `CC(c1ccccc1)N1Cc2cccc(C(=O)O)c2C1=O` (stereo not shown) [ST/641236]: above 50 µM.
Consider `N#Cc1ccc(NC(=O)c2cccs2)cc1C#N` [ST/646239], for which the IC50 was 20.9 µM.
Consider `CCOc1nc2ccccc2nc1NS(=O)(=O)c1ccccc1` [ST/646349], for which the IC50 was 22.9 µM.
The same measure for `O=C(NCCc1ccccc1)c1ccccc1NS(=O)(=O)c1cccs1` [ST/648091]: 18.6 µM; for `O=C(NCc1ccco1)c1ccccc1NS(=O)(=O)c1cccs1` [ST/662660]: 20.4 µM; for `O=S(=O)(Nc1cccc2nsnc12)c1ccccc1` [ST/663705]: 39.8 µM.
For `CN(C)CCNc1ccc2ncc(-c3ccc4ccccc4c3)n2n1` [ST/668081], the IC50 is above 50 µM.
Then `Cc1ccnc2nc(C(=O)N3CCCSC3=Nc3cccc(C(F)(F)F)c3)nn12` [ST/682329], with 31.6 µM.
In the case of `O=C(O)c1cccc2c1C(=O)N(Cc1ccccc1F)C2` [ST/689197], the IC50 was above 50 µM.
Turning to `CCOc1ccc2[nH]c(=O)c(CN(Cc3cccnc3)C(=O)Nc3ccc(F)cc3)cc2c1` [ST/696972], the IC50 is above 50 µM.
Then `COc1ccc(S(=O)(=O)Nc2cc(Cl)ccc2C)c(C)c1C` [ST/724177], with 19.1 µM.
Turning to `O=C(c1ccco1)c1cn(Cc2ccc(F)cc2)c2ccccc12` [ST/727705], the IC50 is 28.8 µM.
On to `CCN(C(=O)Cc1c(C(=O)O)[nH]c2ccccc12)c1cc(C)ccc1C` [ST/728445], for which the IC50 is 18.2 µM.
Then `O=C(Nc1cccc(C(F)(F)F)c1)c1cc(-c2cccc(O)c2)on1` [ST/728737], with above 50 µM; and `O=C(Nc1cccc(Cl)c1)Nc1ccc2snnc2c1` [ST/736217], with 13.5 µM; and `Cc1ccc2[nH]c(COc3ccc(Cl)cc3)nc2c1` [ST/743143], with 29.5 µM.
For the compound `O=C(Nc1ccccc1C(=O)NCc1ccc(Cl)cc1)c1ccco1` [ST/771851], the IC50 is above 50 µM.
Then `O=C(Nc1nnc(C(F)(F)F)s1)c1ccc(Br)s1` [ST/782334], with 11.7 µM; and `O=C(Nc1oc2ccc(Cl)cc2c(=O)c1-c1ccc(Br)cc1)c1ccco1` [ST/802162], with 25.1 µM; and `COc1cccc2[nH]c(C(=O)Nc3cccc(Cl)c3)cc12` [ST/803957], with 12.3 µM.
As for `COc1ccc2cc(C(=O)Nc3ccc(F)c(Cl)c3)[nH]c2c1` [ST/803999], the IC50 is 11.2 µM.
With `Cc1cc(C(=O)N(C2=NC(C)CS2)c2ccc(Cl)cc2)no1` (stereo not shown) [ST/807832], the IC50 was above 50 µM.
For the compound `CC1CSC(N(C(=O)Cn2cnnn2)c2ccc(Cl)cc2)=N1` (stereo not shown) [ST/811532], the IC50 was above 50 µM.
The same measure for `CC1CSC(N(C(=O)CN2CSCC2=O)c2ccc(Cl)cc2)=N1` (stereo not shown) [ST/812474]: above 50 µM; for `CC1CSC(N(C(=O)Cc2cccs2)c2ccc(Cl)cc2)=N1` (stereo not shown) [ST/815117]: 33.9 µM; for `CC1CSC(N(C(=O)CCc2ccco2)c2ccc(Cl)cc2)=N1` (stereo not shown) [ST/816400]: 21.9 µM.
Turning to `Cn1c(=O)c(Oc2ccc(Cl)cc2)c(O)c2ccccc21` [ST/832324], the IC50 was above 50 µM.
